Holding throughout (assay type): cell-based
For experiment [1], the system named is TGF-β-induced epithelial-mesenchymal transition (EMT) response in squamous cell carcinoma (A431) cells. Nature of the experiment: Immunoblot of EMT markers in A431 cells. As for the experimental part: (FIG. 26A) Immunoblot analysis was carried out using cell lysates of A431 cells following incubation with TGF-β, P16, or scrambled control (P16.2) as indicated to determine expression of proteins involved in the EMT response. (FIG. 26B) Densitometry analysis was subsequently performed using the developed immunoblot to illustrate the relative expression of each protein as a function as P16 concentration as indicated.
A431 cancer cells treated with 10 nM of P16.2 (negative peptide control), P12, P16 or PA in the absence or presence of 100 pM TGF-b, followed by 24 hrs of incubation. Cells lysates were analyzed by Western blot for the expression of Fibronectin (mesenchymal marker), Snail and Twist (EMT markers). Actin expression was used as loading control.
(In western blotting, separated proteins are transferred to a membrane and probed.)

Experiment [2] deals with human keratinocyte HaCat cell migration. In words: Wound closure assay, HaCat keratinocytes. The following applies: 10 nM peptide, 100 pM TGF-β, 24 hours (FIG. 28). How it is done:
FIGS. 28A and 28B show the results of wound closure assays performed using human keratinocyte HaCat cells. […] (FIG. 28A) Human Keratinocyte HaCat cells were starved for 24 hours, scratched with pipette tips, and then treated with 100 pM TGF-β and 10 nM CD109-based peptides as indicated for 24 hours. Microscopy images were taken at time 0 and 24 hours of treatment. (FIG. 28B) Migration distances were measured using the Image J software platform. Error bars represent mean+/−standard deviation, asterisk designates a P value of <0.05.

The subject of experiment [3] is TGF-β-induced fibrotic response in human fibroblasts. Nature of the experiment: Immunoblot of fibrotic markers in human primary fibroblasts. The following applies: 100 pM TGF-β, different dosage of P16, 24 hrs (FIG. 34). How it is done:
Human primary fibroblasts were starved for 36 hours, then treated with 20 pM TGF-β and 10 nM CD109-based peptide as indicated for 24 hours. (FIG. 29A) Cell lysates were separated by gel electrophoresis, transferred to a membrane, and immunoblotted with antibodies against fibronectin, PAI-1, CTGF, and α-tubulin. (FIG. 29B) The data shown represent the mean expression levels of 3 different biological replicates calculated by densitometry of fibronectin, PAI-1, and CTGF intensity levels normalized to α-tubulin. Error bars represent the standard deviation of the replicate experiments. A single asterisk designates a t test P value of less than 0.05, and a double asterisk indicates a P value of less than 0.01.
Human fibroblasts were starved for 36 hours, then treated with 100 pM TGF-β and different dosage of P16 for 24 hrs. (FIG. 34A) Cell lysates were separated by gel electrophoresis, transferred to a membrane, and immunoblotted with antibodies against each of the indicated proteins. (FIG. 34B) Densitometry analysis was subsequently carried out to quantitate the expression of each of the indicated proteins as a function of P16 concentration.

Here are results for one sequence from patent publication US11787850B2, “Peptidic TGF-beta antagonists” (priority 2015, dated 2023).

As for ETWIWLDTNMGSRIYQ [Peptide P16], the “inhibition of TGF-b induced EMT response (Fibronectin, Snail, Twist)” value in experiment [1] (10 nM peptide, 100 pM TGF-b, 24 hrs (FIG. 33)) is listed as “inhibit”. In addition, the “inhibition of TGF-β-induced EMT response in A431 cells, dose-dependent” value in experiment [1] (immunoblot and densitometry, P16 concentrations as indicated (FIG. 26)) is reported as “inhibit”. In experiment [2], the “suppression of HaCat cell migration” value was “suppress”. Moreover, the “TGF-β-induced expression of fibronectin, collagen (COL1A1), PAI-1, α-SMA and CTGF” value in experiment [3] is recorded as “attenuate”.
